What was measured:
Test in all cases: biochemical
Parameters in all cases: Kinase selectivity panel, IC50 of AC484 (Supplementary Table 1)
SIK1 = SIK1 (Homo sapiens, UniProt P57059)
Method: (§1) Wide-range phosphatase, kinase and preclinical safety pharmacology off-target activity screens were conducted at Eurofins (Extended Data Table 5 and Supplementary Tables 1 and 2). A small phosphatase panel was developed at AbbVie to assess IC50 values on select phosphatases. The following enzymes used in the phosphatase selectivity panel were purchased from Eurofins: PTPN1 (PTP1B; 14–621), PTPN2 (TC-PTP; 14–646), PTPN9 (14–592), SHP1 (14–591) and SHP2 (14–622). The catalytic activity of the phosphatase was monitored using the small-molecule substrate DiFMUP (ThermoFisher) in a fluorescence assay format. In brief, the phosphatase reactions were performed at room temperature in the following assay buffer: 50 mM HEPES, pH 7.2, 100 mM NaCl, 1 mM EDTA, 0.005% Tween-20 and 5 mM TCEP. Each phosphatase was incubated with increasing concentrations of AC484 for 5 min, after which the substrate DiFMUP was added and incubated at 25 °C for 30 min. The final concentration of the enzyme and substrate was maintained at 0.5 nM and 5 μM, respectively, in all the assays. The reaction was then quenched by the addition of a 100 μM solution of bpV(Phen) (Enzo Life Sciences). The fluorescence signal was monitored using an Envision microplate reader (Perkin-Elmer) using excitation and emission wavelengths of 340 nm and 450 nm, respectively. The dose–response curves for the inhibitors were analysed using normalized IC50 regression curve fitting with control-based normalization. Supplementary file 41586_2023_6575_MOESM3_ESM.xlsx: Supplementary Table 1 AC484 kinase selectivity screen.

Flt1 = Flt1 (Homo sapiens, UniProt P17948)
Method: as §1

EGFR = EGFR (Homo sapiens, UniProt P00533)
Method: as §1

PKAc beta = target: T1, PKAc beta (Homo sapiens, UniProt P22694)
T1 construct: gene PRKACB
Method: as §1

TNK2 = TNK2 (Homo sapiens, UniProt Q07912)
Method: as §1

Prkcn = target: T2, Prkcn (Homo sapiens, UniProt O94806)
T2 construct: gene PRKD3
Method: as §1

Measured: IC50

T2 sequence (O94806 whole entry): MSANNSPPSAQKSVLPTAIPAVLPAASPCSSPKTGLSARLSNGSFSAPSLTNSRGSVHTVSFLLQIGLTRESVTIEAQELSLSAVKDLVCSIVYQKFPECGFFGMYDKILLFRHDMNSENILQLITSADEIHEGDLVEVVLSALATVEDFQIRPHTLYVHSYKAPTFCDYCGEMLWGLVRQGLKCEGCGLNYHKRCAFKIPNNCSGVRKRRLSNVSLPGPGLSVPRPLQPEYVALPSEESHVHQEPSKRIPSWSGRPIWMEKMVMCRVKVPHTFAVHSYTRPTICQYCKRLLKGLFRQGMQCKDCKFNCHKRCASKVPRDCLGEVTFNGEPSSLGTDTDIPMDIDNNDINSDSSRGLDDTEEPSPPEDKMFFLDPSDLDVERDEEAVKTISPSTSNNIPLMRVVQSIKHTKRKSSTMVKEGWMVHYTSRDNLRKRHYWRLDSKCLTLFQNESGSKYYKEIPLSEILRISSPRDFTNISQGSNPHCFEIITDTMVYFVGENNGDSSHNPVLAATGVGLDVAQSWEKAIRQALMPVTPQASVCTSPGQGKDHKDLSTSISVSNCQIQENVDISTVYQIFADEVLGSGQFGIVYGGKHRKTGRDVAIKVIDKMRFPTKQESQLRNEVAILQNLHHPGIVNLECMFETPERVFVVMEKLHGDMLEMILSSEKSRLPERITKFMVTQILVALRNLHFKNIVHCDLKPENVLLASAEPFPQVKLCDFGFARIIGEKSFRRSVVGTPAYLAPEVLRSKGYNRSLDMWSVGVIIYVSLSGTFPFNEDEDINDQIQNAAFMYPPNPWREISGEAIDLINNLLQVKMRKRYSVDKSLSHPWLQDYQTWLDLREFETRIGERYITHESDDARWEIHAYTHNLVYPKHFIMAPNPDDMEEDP
EGFR, sequence (P00533 whole entry): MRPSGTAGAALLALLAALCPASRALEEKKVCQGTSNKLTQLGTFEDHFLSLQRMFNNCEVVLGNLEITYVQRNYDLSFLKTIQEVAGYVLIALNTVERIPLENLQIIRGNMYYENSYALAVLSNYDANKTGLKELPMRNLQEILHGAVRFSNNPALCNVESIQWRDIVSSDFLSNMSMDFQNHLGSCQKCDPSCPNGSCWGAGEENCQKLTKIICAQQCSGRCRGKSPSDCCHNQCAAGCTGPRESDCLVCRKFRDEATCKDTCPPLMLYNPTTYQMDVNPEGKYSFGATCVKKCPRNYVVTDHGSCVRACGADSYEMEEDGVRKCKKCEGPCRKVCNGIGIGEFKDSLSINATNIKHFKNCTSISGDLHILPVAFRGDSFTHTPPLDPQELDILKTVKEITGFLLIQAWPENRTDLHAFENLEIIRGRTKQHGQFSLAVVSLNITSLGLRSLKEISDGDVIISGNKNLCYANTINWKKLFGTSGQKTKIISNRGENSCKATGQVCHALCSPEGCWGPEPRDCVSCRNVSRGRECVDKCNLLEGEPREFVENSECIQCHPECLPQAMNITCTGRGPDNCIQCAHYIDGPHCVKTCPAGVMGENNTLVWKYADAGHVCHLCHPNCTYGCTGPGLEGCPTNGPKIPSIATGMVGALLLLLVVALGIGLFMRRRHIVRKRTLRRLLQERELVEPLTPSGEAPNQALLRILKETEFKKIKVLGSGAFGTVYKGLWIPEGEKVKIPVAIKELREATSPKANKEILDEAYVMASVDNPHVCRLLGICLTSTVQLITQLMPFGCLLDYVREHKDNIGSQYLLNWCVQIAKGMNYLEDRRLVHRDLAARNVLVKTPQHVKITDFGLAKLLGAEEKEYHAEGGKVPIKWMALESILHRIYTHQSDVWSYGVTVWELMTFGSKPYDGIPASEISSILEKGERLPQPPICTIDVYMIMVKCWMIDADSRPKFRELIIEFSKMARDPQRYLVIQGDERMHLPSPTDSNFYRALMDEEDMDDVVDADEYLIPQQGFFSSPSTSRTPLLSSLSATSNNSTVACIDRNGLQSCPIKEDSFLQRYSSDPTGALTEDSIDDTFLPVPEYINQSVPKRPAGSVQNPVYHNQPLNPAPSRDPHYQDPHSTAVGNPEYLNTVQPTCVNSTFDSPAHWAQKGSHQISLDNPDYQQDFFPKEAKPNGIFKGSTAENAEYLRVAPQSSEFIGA
SIK1, sequence (P57059 whole entry): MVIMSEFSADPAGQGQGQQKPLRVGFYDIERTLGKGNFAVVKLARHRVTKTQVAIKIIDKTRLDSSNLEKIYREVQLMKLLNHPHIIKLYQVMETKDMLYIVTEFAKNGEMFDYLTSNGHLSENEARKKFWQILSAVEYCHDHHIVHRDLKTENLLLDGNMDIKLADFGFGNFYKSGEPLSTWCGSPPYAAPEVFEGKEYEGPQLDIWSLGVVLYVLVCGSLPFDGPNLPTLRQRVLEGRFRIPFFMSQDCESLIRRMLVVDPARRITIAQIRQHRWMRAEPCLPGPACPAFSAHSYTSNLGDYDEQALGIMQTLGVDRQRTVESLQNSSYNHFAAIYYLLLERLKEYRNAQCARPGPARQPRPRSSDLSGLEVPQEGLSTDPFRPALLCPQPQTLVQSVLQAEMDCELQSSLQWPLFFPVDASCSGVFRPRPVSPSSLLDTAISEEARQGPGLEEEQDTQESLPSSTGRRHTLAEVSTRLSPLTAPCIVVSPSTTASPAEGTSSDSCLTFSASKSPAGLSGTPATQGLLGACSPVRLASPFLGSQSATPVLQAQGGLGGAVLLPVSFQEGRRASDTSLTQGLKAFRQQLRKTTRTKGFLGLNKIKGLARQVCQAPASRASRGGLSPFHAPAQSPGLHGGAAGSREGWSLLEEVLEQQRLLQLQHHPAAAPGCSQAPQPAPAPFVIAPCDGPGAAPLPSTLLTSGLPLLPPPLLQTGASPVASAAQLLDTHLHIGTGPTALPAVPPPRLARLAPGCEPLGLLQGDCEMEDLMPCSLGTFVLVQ
Flt1, sequence (P17948 whole entry): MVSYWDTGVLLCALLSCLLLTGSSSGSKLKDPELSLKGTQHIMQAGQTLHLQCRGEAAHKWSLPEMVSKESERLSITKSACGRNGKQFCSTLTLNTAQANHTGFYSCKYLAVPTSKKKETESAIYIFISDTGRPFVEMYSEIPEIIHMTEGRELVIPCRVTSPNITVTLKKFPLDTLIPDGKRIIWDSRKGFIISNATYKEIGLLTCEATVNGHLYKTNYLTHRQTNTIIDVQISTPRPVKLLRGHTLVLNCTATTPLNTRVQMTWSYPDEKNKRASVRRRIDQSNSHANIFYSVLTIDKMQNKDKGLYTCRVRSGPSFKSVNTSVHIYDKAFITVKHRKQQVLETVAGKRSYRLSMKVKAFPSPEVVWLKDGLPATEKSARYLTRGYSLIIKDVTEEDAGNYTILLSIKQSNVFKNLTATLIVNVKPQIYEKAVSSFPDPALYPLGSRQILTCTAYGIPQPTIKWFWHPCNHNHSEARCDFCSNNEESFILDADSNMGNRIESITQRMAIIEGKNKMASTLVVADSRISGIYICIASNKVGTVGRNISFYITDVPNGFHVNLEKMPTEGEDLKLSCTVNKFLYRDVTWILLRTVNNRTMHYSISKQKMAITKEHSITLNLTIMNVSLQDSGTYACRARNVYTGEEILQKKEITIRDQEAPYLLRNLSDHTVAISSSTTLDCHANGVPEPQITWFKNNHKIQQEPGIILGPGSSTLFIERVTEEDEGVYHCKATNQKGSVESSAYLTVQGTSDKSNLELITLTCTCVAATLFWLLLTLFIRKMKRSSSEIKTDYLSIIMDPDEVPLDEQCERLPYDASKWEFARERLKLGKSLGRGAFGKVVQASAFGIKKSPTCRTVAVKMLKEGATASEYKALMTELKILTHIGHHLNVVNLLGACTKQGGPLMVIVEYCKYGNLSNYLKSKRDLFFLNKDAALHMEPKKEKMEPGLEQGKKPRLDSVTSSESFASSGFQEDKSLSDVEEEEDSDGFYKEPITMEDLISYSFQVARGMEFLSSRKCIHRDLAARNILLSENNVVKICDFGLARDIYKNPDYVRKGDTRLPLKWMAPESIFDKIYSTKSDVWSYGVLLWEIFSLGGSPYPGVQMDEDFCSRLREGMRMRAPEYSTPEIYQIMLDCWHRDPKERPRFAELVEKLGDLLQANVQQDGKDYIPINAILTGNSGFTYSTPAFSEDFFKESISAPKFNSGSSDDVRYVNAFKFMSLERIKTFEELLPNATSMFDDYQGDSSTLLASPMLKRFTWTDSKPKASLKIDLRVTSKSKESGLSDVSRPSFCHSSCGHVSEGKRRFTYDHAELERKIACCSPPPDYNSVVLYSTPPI

CC(C)CCN[C@@H]1CCc2cc(O)c(N3CC(=O)NS3(=O)=O)c(F)c2C1 [AC484, ABBV-CLS-484]
> 10 µM: all assays above

From publication PMC10599993, “The PTPN2/PTPN1 inhibitor ABBV-CLS-484 unleashes potent anti-tumour immunity” (Nature, 2023)
